Read-outs that look alike come from different tables or passages of the source.
Key:
[1] = test system: L. donovani promastigotes; assay: Growth inhibition of L. donovani promastigotes; assay type: cell-based, Leishmania donovani; settings: read-out: IC50 vs. L. donovani promastigotes
[2] = test system: L. donovani axenic amastigotes; assay: Growth inhibition of L. donovani axenic amastigotes (three-day tetrazolium dye assay); assay type: cell-based, Leishmania donovani
Protocol: (§1) 2000, 110, 223-236, incorporated herein by reference.^14
(§2) Determination of the drug susceptibility of parasites and mammalian cells. The susceptibility of Leishmania donovani amastigote-like parasites (WHO designation: MHOM/SD/62/1S-CL2D) to growth inhibition by compounds of interest was measured in a three-day assay using the tetrazolium dye-based CellTiter reagent (Promega) (Werbovetz, K., Brendle, J., and Sackett, D. (1999) Mol. Biochem. Parasitol. 98, 53-65., and Havens, C., Bryant, N., Asher, L., Lamoreaux, L., Perfetto, S., Brendle, J., and Werbovetz, K. (2000) Mol. Biochem. Parasitol. 110, 223-236). The amastigote medium used in this assay is based on the medium mentioned by Joshi et al. (Joshi, M., Dwyer, D. M., and Nakhasi, H. L. (1993) Mol. Biochem. Parasitol. 58, 345-354). Prior to addition of fetal bovine serum to a final concentration of 20%, this amastigote medium contains 15 mM KCl, 115 mM KH2PO4, 10 mM K2HPO4, 0.5 mM MgSO4, 24 mM NaHCO3, a 1-concentration of RPMI-1640 vitamins and amino acids, 2.0 mM L-glutamine, 22 mM D-glucose, 100 units/mL penicillin, 100 ∝g/ml streptomycin, 0.1 mM adenosine, 1 ∝g/mL folate, and 25 mM MES (pH 5.5). Compounds were tested for their activity against bloodstream-form Trypanosoma brucei brucei (MITat 1.2, variant 221) axenically-cultured in HMI-9 medium , H., and Hirumi, K. (1989) J. Parasitol. 75, 985-989.) following the procedure of Ellis et al. (Ellis, J., Fish, W., Sileghem, M., and McOdimba, F. (1993) Vet. Parasitol. 50, 143-149.) with some modifications. Briefly, 100 μL of late log phase parasites were incubated in 96-well plates (Costar) at an initial concentration of 10^5 cells/ml with or without test compounds at 37° C. in a humidified 5% CO2 atmosphere for 72 hours. Twenty-five μL of a 5 mg/mL solution of MTT (prepared in phosphate buffered saline and filter sterilized) was then added to each well and plates were re-incubated at 37° C. as before for 2 h. One hundred ∝L of 20% SDS lysis buffer (prepared in 50% aqueous DMF) was added to each well and plates were incubated as before for an additional 3-4 h. Optical densities were then measured at 570 nm using SpectraMax Plus microplate reader. […] Assessment of the in vitro sensitivity of T. b. brucei Lab 110 EATRO and P. falciparum strains to compounds was performed by methods described in Donkor et al. (Donkor, I., Assefa, H., Rattendi, D., Lane, S., Vargas, M., Goldberg, B., and Bacchi, C. (2001) Eur. J. Med. Chem. 36, 531-538.) and Guan et al. (Guan, J., Kyle, D., Gerena, L., Zhang, Q., Milhous, W., and Lin, A. (2002) J. Med. Chem. 45, 2741-2748).

leishmanial tubulin = assay type: biochemical; settings: mean ± SD of at least one duplicate measurement, SD of controls 27.6%
Protocol: as §1
Briefly, the tubulin assembly assays are performed as follows. […] The change in turbidity was measured at 351 nm using the SpectraMax Plus microplate reader immediately after GTP addition at 30° C. (for leishmanial tubulin) or 37° C. (for brain tubulin).

J774 murine macrophages = assay: Toxicity to J774 macrophages (three-day CellTiter assay); assay type: cell-based; settings: read-out: IC50, J774 macrophages
Protocol: The toxicity of compounds to J774 murine macrophages and PC3 […] cells was measured in a three-day assay using the CellTiter reagent. […] Macrophages were allowed to adhere for 24 hours, then the medium was removed and replaced with serial dilutions of the test compounds in the DMEM medium mentioned above without phenol red. After 72 hr incubation with the test compounds at 37° C. in a humidified 5% CO2 incubator, cell viability was determined using the CellTiter reagent by adding 20 μL of assay solution to each well. After a 6-7 h incubation at 37° C. to allow for color development, the absorbance of each well at 490 nm was measured in a SpectraMax Pro microplate reader (Molecular Devices). The toxicity of compounds to PC3 cells was assessed in the same manner as for the macrophages, except that the medium used was RPMI 1640 supplemented with 10% heat inactivated fetal calf serum, 2.0 mM L-glutamine, 50 units/mL penicillin, and 50 ∝g/mL streptomycin. IC50 values for the J774 and PC3 assays were determined with the software program SoftMax Pro as described earlier.

[3] = test system: Trypanosoma brucei brucei (MITat 1.2, variant 221); assay: microbe, parasite or virus in culture; assay type: cell-based; settings: read-out: IC50, T. b. brucei variant 221
Protocol: as §2

[4] = Leishmania donovani, Table 1, mean ± standard deviation of at least two independent measurements, read-out: IC50 vs. L. donovani amastigotes
[5] = mean ± standard deviation of at least two independent measurements
[6] = unit inferred, three-day tetrazolium dye assay, read-out: IC50, L. donovani axenic amastigotes
[7] = Trypanosoma brucei, unit inferred

Compound	IC50 [2, 6] [µM]	IC50 ([3]; unit inferred) [µM]	IC50 (J774 murine macrophages; unit inferred) [µM]	also measured
CCCCCN(CCCCC)c1c([N+](=O)[O-])cc(S(N)(=O)=O)cc1[N+](=O)[O-] [Compound 16]	–	–	–	IC50 ([1]; Leishmania donovani): 8.02 ± 0.42 µM; IC50 [2, 4]: 9 ± 0.7 µM; % Inhibition of Leishmanial Tubulin Assembly at 20 μM Compound (leishmanial tubulin): 95 ± 5%
N1-(3-Methyl)phenyl-3,5-dinitro-N4,N4-di-n-propylsulfonilamide [Compound 42]	–	–	–	IC50 ([2]; read-out: IC50, L. donovani axenic amastigotes): 22.7 ± 0.8 µM; IC50 (J774 murine macrophages): 15.8 ± 2.1 µM; IC50 [3]: 0.92 µM
CCCNc1c([N+](=O)[O-])cc(S(N)(=O)=O)cc1[N+](=O)[O-] [Compound 13]	–	–	–	IC50 [1, 5]: 67 ± 18.4 µM; % Inhibition of Leishmanial Tubulin Assembly at 20 μM Compound (leishmanial tubulin): 43 ± 19%
NS(=O)(=O)c1cc([N+](=O)[O-])c(N2CCCC2)c([N+](=O)[O-])c1 [Compound 19]	–	–	–	IC50 [1, 5]: 97.1 ± 53 µM; % Inhibition of Leishmanial Tubulin Assembly at 20 μM Compound (leishmanial tubulin): 57 ± 18%
CCCN(CCC)c1c([N+](=O)[O-])cc(S(=O)(=O)NCC)cc1[N+](=O)[O-] [Compound 35, N1-Ethyl-3,5-dinitro-N4,N4-di-n-propylsulfonilamide]	> 100	4	–	–
CCCN(CCC)c1c([N+](=O)[O-])cc(S(=O)(=O)Nc2cccc(Cl)c2)cc1[N+](=O)[O-] [Compound 43, N1-(3-Chloro)phenyl-3,5-dinitro-N4,N4-di-n-propylsulfonilamide]	5.47 ± 0.1	0.88	8.67 ± 0.17	–
CCN(CC)c1c([N+](=O)[O-])cc(S(=O)(=O)Nc2ccccc2)cc1[N+](=O)[O-] [Compound 31, N1-Phenyl-3,5-dinitro-N4,N4-di-n-ethylsulfonilamide]	10.6 ± 2.6	1.9	47.7 ± 1.6	–
CCCN(CCC)c1c([N+](=O)[O-])cc(C(N)=NO)cc1[N+](=O)[O-] [Compound 29]	–	–	–	IC50 [1, 5]: > 100 µM; % Inhibition of Leishmanial Tubulin Assembly at 20 μM Compound (leishmanial tubulin): 35 ± 7%
CCCN(CCC)c1c([N+](=O)[O-])cc(S(=O)(=O)NC(C)C)cc1[N+](=O)[O-] [Compound 38, N1-Isopropyl-3,5-dinitro-N4,N4-di-n-propylsulfonilamide]	42.8 ± 2.3	2.5	–	–
CCCN(CCC)c1c([N+](=O)[O-])cc(S(=O)(=O)Nc2ccc(C)cc2)cc1[N+](=O)[O-] [Compound 40, N1-(4Methyl)phenyl-3,5-dinitro-N4,N4-di-n-propylsulfonilamide]	32.1 ± 12.7	10.5	10.5 ± 2	–
CCCN(CCC)c1c([N+](=O)[O-])cc(S(=O)(=O)Nc2ccc(OC)cc2)cc1[N+](=O)[O-] [Compound 39, N1-(4-Methoxy)phenyl-3,5-dinitro-N4,N4-di-n-Propylsulfonilamide]	31.9 ± 14.6	20.5	15.2 ± 6.7	–
CCCN(CCC)c1c([N+](=O)[O-])cc(S(=O)(=O)N(CC)CC)cc1[N+](=O)[O-] [Compound 36, N1,N1-Diethyl-3,5-dinitro-N4,N4-di-n-propylsulfonilamide]	26.7 ± 0.4	10.2	–	–
CCCN(CCC)c1c([N+](=O)[O-])cc(S(=O)(=O)Nc2ccccn2)cc1[N+](=O)[O-] [Compound 46, N1-(2-Pyridinyl)-3,5-dinitro-N4,N4-di-n-propylsulfonilamide]	59.7 ± 6.2	10.9	44.9 ± 16.3	–
CCCN(CCC)c1c([N+](=O)[O-])cc(S(=O)(=O)Nc2ccc(Cl)cc2)cc1[N+](=O)[O-] [Compound 41, N1-(4-Chloro)phenyl-3,5dinitro-N4,N4-di-n-propylsulfonilamide]	13.3 ± 3	9.5	9.13 ± 3.81	–
N=C(N)c1ccc(OCCCCCOc2ccc(C(=N)N)cc2)cc1 [Pentamidine, reference compound]	–	–	–	IC50 ([1]; Leishmania donovani, mean ± standard deviation of at least two independent measurements): 1.61 ± 0.22 µM; IC50 ([2]; Leishmania donovani, 72 h, unit inferred, three-day tetrazolium dye assay, read-out: IC50, L. donovani axenic amastigotes): 2 ± 0.06 µM; IC50 [2, 4]: 2 ± 0.06 µM; IC50 [3, 7]: 0.0194 ± 0.0069 µM
CCCN(CCC)c1c([N+](=O)[O-])cc(S(=O)(=O)N(C)C)cc1[N+](=O)[O-] [Compound 34, N1,M1-Dimethyl-3,5-dinitro-N4,N4-di-n-propylsulfonilamide]	> 100	5.9	–	–
CCCN(CCC)c1c([N+](=O)[O-])cc(C#N)cc1[N+](=O)[O-] [Compound 27]	–	–	–	IC50 [1, 5]: > 100 µM; % Inhibition of Leishmanial Tubulin Assembly at 20 μM Compound (leishmanial tubulin): 25 ± 17%
CCCN(CCC)c1c([N+](=O)[O-])cc(S(=O)(=O)Nc2ccc(Cl)c(Cl)c2)cc1[N+](=O)[O-] [Compound 44, N1-(3,4-Dichloro)phenyl-3,5-dinitro-N4,N4-di-n-propylsulfonilamide]	5.03 ± 0.8	6.7	7.19 ± 0.59	–
CCCN(CCC)c1c([N+](=O)[O-])cc(S(=O)(=O)NC)cc1[N+](=O)[O-] [Compound 33, N1-Methyl-3,5-dinitro-N4,N4di-n-propylsulfonilamide]	> 100	4.6	–	–
CCCN(CCC)c1c([N+](=O)[O-])cc(S(=O)(=O)Nc2cc(Cl)cc(Cl)c2)cc1[N+](=O)[O-] [Compound 45, N1-(3,5-Dichloro)phenyl-3,5-dinitro-N4,N4-di-n-propylsulfonilamide]	3.71 ± 0.91	3.4	5.12 ± 0.35	–
Cc1ccc(C(=O)Nc2ccc(S(=O)(=O)O)c3cc(S(=O)(=O)O)cc(S(=O)(=O)O)c23)cc1NC(=O)c1cccc(NC(=O)Nc2cccc(C(=O)Nc3cc(C(=O)Nc4ccc(S(=O)(=O)O)c5cc(S(=O)(=O)O)cc(S(=O)(=O)O)c45)ccc3C)c2)c1 [Suramin, reference compound]	–	–	–	IC50 [3, 7]: 0.233 ± 0.05 µM
CCCN(CCC)c1c([N+](=O)[O-])cc(S(=O)(=O)Nc2cccc(OC)c2)cc1[N+](=O)[O-] [Compound 30, N1-(3-Methoxy)phenyl-3,5-dinitro-N4,N4-di-n-propylsulfonilamide]	8.11 ± 3.33	0.5	25.3 ± 3.8	–
CCCCN(CCCC)c1c([N+](=O)[O-])cc(S(=O)(=O)Nc2ccccc2)cc1[N+](=O)[O-] [Compound 32, N1-Phenyl-3,5-dinitro-N4,N4-di-n-butylsulfonilamide]	2.57 ± 0.25	0.1	11.9 ± 0.5	–
